In patent US20040067241A1, “Comtrol a/k/a Virex antiviral composition” (priority 2002, published 2004):

Settings: 75 mg/kg/day i.n.

In the case of NC(=O)c1ncn([C@@H]2O[C@H](CO)[C@@H](O)[C@H]2O)n1 [Ribavirin], the “Tox Controls Surv/Total” value (bid x 5, uninfected mice) is reported as 3/3 and the “Tox Controls Mean Host Weight Change” value (initial weight vs weight 18 h after final treatment) is reported as -1.7 g.
